In one assay the target is T1, 5-HT1A receptors (Rattus norvegicus, UniProt P19327).
T1 sequence (P19327 1-422): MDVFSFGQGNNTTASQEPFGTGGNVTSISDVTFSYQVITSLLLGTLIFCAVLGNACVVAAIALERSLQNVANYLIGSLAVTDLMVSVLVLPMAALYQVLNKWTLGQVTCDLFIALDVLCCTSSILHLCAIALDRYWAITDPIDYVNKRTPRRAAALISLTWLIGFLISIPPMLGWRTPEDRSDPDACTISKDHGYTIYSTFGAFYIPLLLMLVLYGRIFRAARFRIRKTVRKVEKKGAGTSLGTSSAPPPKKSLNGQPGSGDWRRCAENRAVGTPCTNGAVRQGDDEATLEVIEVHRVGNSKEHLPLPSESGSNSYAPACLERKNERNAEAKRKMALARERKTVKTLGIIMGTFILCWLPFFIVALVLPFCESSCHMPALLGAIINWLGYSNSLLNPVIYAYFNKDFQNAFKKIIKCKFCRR
Kind of assay: inhibition of [3H]8-OH-DPAT binding to 5-HT1A receptors in vitro. On the set-up: species or system rat (male Sprague-Dawley, hippocampal tissue). As to conditions: for pKi: [3H]8-OH-DPAT 2 nM, 25° C., 30 min; for inhibition at 1 µM: read-out: % displacement at 10^-6 M, 5-HT1A.

The target in another assay is T2, α2D-adrenoceptors (Rattus norvegicus, UniProt P22909).
T2 sequence (P22909 1-465): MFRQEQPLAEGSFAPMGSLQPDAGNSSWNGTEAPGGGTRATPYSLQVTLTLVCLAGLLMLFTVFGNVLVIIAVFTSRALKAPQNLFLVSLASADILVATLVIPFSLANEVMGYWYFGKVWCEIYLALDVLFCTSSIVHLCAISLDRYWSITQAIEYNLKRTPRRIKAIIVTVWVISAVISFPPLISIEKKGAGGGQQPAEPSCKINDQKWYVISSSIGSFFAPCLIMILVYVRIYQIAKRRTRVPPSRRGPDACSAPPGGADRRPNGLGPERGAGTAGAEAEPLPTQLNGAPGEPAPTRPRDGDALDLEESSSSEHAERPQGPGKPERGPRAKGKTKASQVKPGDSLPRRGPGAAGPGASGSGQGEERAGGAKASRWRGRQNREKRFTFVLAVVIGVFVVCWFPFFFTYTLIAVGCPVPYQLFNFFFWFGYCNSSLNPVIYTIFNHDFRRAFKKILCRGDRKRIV
Description: inhibition of tritiated idazoxan binding to α2D-adrenoceptors in vitro. As to conditions: rat frontal cortex; for pKi: [3H]idazoxan 1 nM, 0° C., 75 min; for inhibition at 1 µM: 10^-6 M, [3H]idazoxan, read-out: % displacement at 10^-6 M, α2D. Also noted: species or system rat (male Charles River CD, frontal cortical tissue).

The test system of another assay is α1-adrenoceptors. Kind of assay: inhibition of 7-methoxy-[3H]prazosin binding to α1-adrenoceptors in vitro. Also noted: species or system rat (male Charles River CD, whole cortical tissue). The settings on record: rat whole cortex, 30 min; for % displacement at 10^-6 M, α1: 7-methoxy-[3H]prazosin, 1 µM; for pKi: 7-methoxy-[3H]prazosin 0.1 nM, 30° C. On the procedure: Whole cortical tissue from the brains of male Charles River CD rats weighing between 150-250 g were homogenised in ice-cold 50 mM Tris-HCl, pH 7.6 (at 25° C.; 1:40 w/v) and centrifuged at 1000 g at 4° C. for 10 minutes. The supernatant was centrifuged at 30,000 g at 4° C. for 10 minutes. The pellet was rehomogenised in 50 mM Tris-HCl, pH 7.6 (1:40 w/v) and centrifuged at 30,000 g at 4° C. for 10 minutes. The final pellet was resuspended in 50 mM Tris-HCl, pH 7.6 (equivalent to 12.5 mg wet weight of tissue/ml) and used immediately in the binding assay. Aliquots (400 μl; equivalent to 5 mg wet weight of tissue/tube) of this suspension were added to tubes containing the ligand (50 μl; 0.1 nM) and distilled water (50 μl; total binding) or phentolamine (50 μl; 5 μM; non-specific binding) or test compound (50 μl; at a single concentration of 10^-6 M or at 10 concentrations ranging from 10^-11 -10^-3 M). The ligand was 7-methoxy-[^3 H]prazosin and the mixture was incubated at 30° C. for 30 minutes before the incubation was terminated by rapid filtration. The filters were washed with ice-cold Tris-HCl buffer and dried. The filters were punched out into vials, scintillation fluid added and radioactivity determined by liquid scintillation counting. The percentage displacement of specific binding of the tritiated ligand was calculated for the single concentration (10^-6 M) of test compound. […] The concentration which gave 50% inhibition of specific binding (IC50) was obtained from the curve. The inhibition coefficient Ki was then calculated using the formula [formula] in which [ligand] is the concentration of the tritiated ligand used and KD is the equilibrium dissociation constant for the ligand.

Another assay has as its target D2 dopamine receptors (Rattus norvegicus, UniProt P61169). Kind of assay: inhibition of tritiated (S)-sulpiride binding to D2 dopamine receptors in vitro. Also noted: species or system rat (male Charles River CD, striatal tissue). The settings on record: rat striatum; for pKi: tritiated (S)-sulpiride 1 nM, 4° C., 40 min.
The mark [1] stands for this setting: 10^-6 M, rat hippocampus, [3H]8-OH-DPAT.

pKi: −log10 of the molar value. Structures can show the parent of a compound that is named as a salt. Where two headings read alike, the source gives them in different places. Where only a bound is given, the exact number is not on record here.

Sequence of D2 dopamine receptors (P61169 whole entry): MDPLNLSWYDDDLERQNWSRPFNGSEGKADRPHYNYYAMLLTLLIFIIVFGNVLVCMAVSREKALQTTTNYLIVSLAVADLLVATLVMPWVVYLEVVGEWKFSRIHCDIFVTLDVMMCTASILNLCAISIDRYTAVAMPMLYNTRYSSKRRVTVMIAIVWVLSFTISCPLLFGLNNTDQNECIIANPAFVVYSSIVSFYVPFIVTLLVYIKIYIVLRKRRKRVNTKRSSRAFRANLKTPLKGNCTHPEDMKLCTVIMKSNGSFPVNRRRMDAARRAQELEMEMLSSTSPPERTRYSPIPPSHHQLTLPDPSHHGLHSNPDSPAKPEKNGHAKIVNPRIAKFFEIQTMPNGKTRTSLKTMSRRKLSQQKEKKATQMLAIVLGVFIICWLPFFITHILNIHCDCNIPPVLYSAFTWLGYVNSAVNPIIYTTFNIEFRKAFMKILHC
Description for 5-HT1A receptors: Hippocampal tissue from the brains of male Sprague-Dawley rats (Charles River; weight range 150-250 g) was homogenised in ice-cold 50 mM Tris-HCl buffer (pH 7.7 when measured at 25° C., 1:40 w/v) and centrifuged at 30,000 g at 4° C. for 10 minutes. The pellet was rehomogenised in the same buffer, incubated at 37° C. for 10 minutes and centrifuged at 30,000 g at 4° C. for 10 minutes. The final pellet was resuspended in 50 mM Tris-HCl buffer (pH 7.7) containing 4 mM CaCl2. 0.1% L-ascorbic acid and 10 μM pargyline hydrochloride (equivalent to 6.25 mg wet weight of tissue/ml) and used immediately in the binding assay. Aliquots (400 μl; equivalent to 2.5 mg wet weight of tissue/tube) of this suspension were added to tubes containing the ligand (50 μl; 2 nM) and distilled water (50 μl; total binding) or 5-HT (50 μl; 10 μM; non-specific binding) or test compound (50 μl; at a single concentration of 10^-6 M or at 10 concentrations ranging from 10^-11 -10^-3 M). The ligand was [^3 H]8-hydroxy-2-(dipropylamino)tetralin ([^3 H]8-OH-DPAT) and the mixture was incubated at 25° C. for 30 minutes before the incubation was terminated by rapid filtration.
The filters were washed with ice-cold Tris-HCl buffer and dried. The filters were punched out into vials, scintillation fluid added and radioactivity determined by liquid scintillation counting. The percentage displacement of specific binding of the tritiated ligand was calculated for the single concentration (10^-6 M) of test compound. Displacement curves were then produced for those compounds which displaced ≥50% of specific binding of the tritiated ligand at 10^-6 M using a range of concentrations of the compound. The concentration which gave 50% inhibition of specific binding (IC50) was obtained from the curve. The inhibition coefficient Ki was then calculated using the formula [formula] in which [ligand] is the concentration of the tritiated ligand used and KD is the equilibrium dissociation constant for the ligand.

The pKi is the negative decadic logarithm of the Ki, by convention in mol/L. For the compound `C=CCn1c(-c2cccnc2)nn(CCN2CCN(c3ccccc3C)CC2)c1=O` [Example 71, 4-Allyl-2-{2-[4-(2-methylphenyl)piperazin-1-yl]ethyl}-5-(3-pyridyl)-1,2,4-triazol-3(2H,4H)-one], the pKi on 5-HT1A receptors (rat hippocampus), at α2D-adrenoceptors and at D2 dopamine receptors was less than 6.30 each time. Further, in the assay on α1-adrenoceptors, the “% displacement at 10^-6 M, α1” value is 56%.

In the case of `C=CCn1c(-c2ccco2)nn(CN2CCN(c3ccccc3OC)CC2)c1=S` [Example 56, 4-Allyl-5-(2-furyl)-2-[4-(2-methoxyphenyl)piperazin-1-ylmethyl]-1,2,4-triazole-3(2H,4H)-thione], the negative logarithm of the Ki (pKi) at 5-HT1A receptors (rat hippocampus) was 6.98; on α2D-adrenoceptors, 6.71; at α1-adrenoceptors, 6.40; on D2 dopamine receptors, 6.80.

For `C=CCn1c(-c2cccs2)nn(CN2CCN(c3ccccc3OC)CC2)c1=S` [Example 60, 4-Allyl-2-[4-(2-methoxyphenyl)piperazin-1-ylmethyl]-5-(2-thienyl)-1,2,4-triazole-3(2H,4H)-thione], the pKi on 5-HT1A receptors (rat hippocampus) was 6.86; at α2D-adrenoceptors it was 7.09; at α1-adrenoceptors it was 6.80; at D2 dopamine receptors it was 6.81.

As for `C=CCn1c(-c2ccccc2)nn(CCCCN2CCN(c3ccccc3OC)CC2)c1=O.Cl.Cl` [Example 66, 4-Allyl-2-{4-[4-(2-methoxyphenyl)piperazin-1-yl]butyl}-5-phenyl-1,2,4-triazol-3(2H,4H)-one dihydrochloride], on 5-HT1A receptors, the inhibition at 1 µM came out at 92%. Also, the pKi at α2D-adrenoceptors was less than 6.30; at D2 dopamine receptors, 6.77. In addition, the “% displacement at 10^-6 M, α1” value in the assay with α1-adrenoceptors was found to be 99%.

In the case of `COc1ccccc1N1CCN(Cn2nc(-c3ccncc3)n(C)c2=S)CC1` [Example 51, 2-[4-(2-Methoxyphenyl)piperazin-1-ylmethyl]-4-methyl-5-(4-pyridyl)-1,2,4-triazole-3(2H,4H)-thione], the inhibition at 1 µM at 5-HT1A receptors (setting [1]) came out at 54%. The negative-log Ki (pKi) on α2D-adrenoceptors was less than 6.30; on D2 dopamine receptors it was 6.87. The “% displacement at 10^-6 M, α1” value with α1-adrenoceptors came to 53%.

Take `C=CCn1c(C)nn(CCN2CCN(c3ccccc3OC)CC2)c1=O` [Example 70, 4-Allyl-2-{2-[4-(2-methoxyphenyl)piperazin-1-yl]ethyl}-5-methyl-1,2,4-triazol-3(2H,4H)-one]: at 5-HT1A receptors (setting [1]), the inhibition at 1 µM was determined as 69%. Besides, the pKi is less than 6.30 on α2D-adrenoceptors and 6.51 at D2 dopamine receptors. In addition, in the assay with α1-adrenoceptors, the “% displacement at 10^-6 M, α1” value came to 64%.

With `COc1ccccc1N1CCN(Cc2c(C3CC3)nn(-c3ccccc3)c2N)CC1` [Example 9, 5-amino-3-cyclopropyl-4-[4-(2-methoxyphenyl)piperazin-1-ylmethyl]-1-phenylpyrazole], the pKi at 5-HT1A receptors (rat hippocampus) is 7.31; on α2D-adrenoceptors it was 7.09; on α1-adrenoceptors, 8.05; at D2 dopamine receptors, 6.43.

Consider `C=CCn1c(-c2cccs2)nn(CCN2CCN(c3ccccc3OC)CC2)c1=O` [Example 69, 4-Allyl-2-{2-[4-(2-methoxyphenyl)piperazin-1-yl]ethyl}-5-(2-thienyl)-1,2,4-triazol-3(2H,4H)-one], for which, at 5-HT1A receptors (setting [1]), the inhibition at 1 µM was determined as 70%. The pKi at α2D-adrenoceptors and at D2 dopamine receptors was less than 6.30 throughout. In addition, the “% displacement at 10^-6 M, α1” value in the assay with α1-adrenoceptors came to 93%.

As for `C=CCn1c(-c2cccnc2)nn(CCCCN2CCN(c3ccccc3OC)CC2)c1=O` [Example 46, 4-allyl-2-{4-[4-(2-methoxyphenyl)piperazin-1-yl]butyl}-5-(3-pyridyl)-1,2,4-triazol-3(2H,4H)-one], the pKi was 7.19 at 5-HT1A receptors (rat hippocampus), less than 6.30 at α2D-adrenoceptors, 7.80 at α1-adrenoceptors and 7.32 on D2 dopamine receptors.

For the compound `C=CCN1C(=O)C(C)(CN2CCN(c3ccccc3OC)CC2)N=C1c1cccnc1` (stereo not drawn) [Example 39, 1-allyl-4-[4-(2-methoxyphenyl)piperazin-1-ylmethyl]-4-methyl-2-(3-pyridyl)-2-imidazolin-5-one], the pKi on 5-HT1A receptors (rat hippocampus) is 7.00; on α2D-adrenoceptors, 6.94; at α1-adrenoceptors, less than 6.30. In addition, the inhibition at 1 µM on D2 dopamine receptors (10^-6 M, tritiated (S)-sulpiride, read-out: % displacement at 10^-6 M, D2) amounted to 72%.

Consider `C=CCn1c(C)nn(CN2CCN(c3ccccc3OC)CC2)c1=S` [Example 59, 4-Allyl-2-[4-(2-methoxyphenyl)piperazin-1-ylmethyl]-5-methyl-1,2,4-triazole-3(2H,4H)-thione], for which the pKi on 5-HT1A receptors (rat hippocampus) is 6.92; at α2D-adrenoceptors, 6.59; at α1-adrenoceptors, 6.30; on D2 dopamine receptors it was 6.51.

Take `C=CCn1c(-c2cccnc2)nn(CN2CCN(c3ccccc3OC)CC2)c1=S` [Example 47, 4-Allyl-2-[4-(2-methoxyphenyl)piperazin-1-ylmethyl]-5-(3-pyridyl)-1,2,4-triazole-3(2H,4H)-thione]: the pKi was 6.82 at 5-HT1A receptors (rat hippocampus), 6.75 at α2D-adrenoceptors, less than 6.30 at α1-adrenoceptors and 6.58 on D2 dopamine receptors.

As for `C=CCn1c(-c2cccnc2)nn(CCCCN2CCN(c3cccc(C)c3C)CC2)c1=O` [Example 64, 4-Allyl-2-{4-[4-(2,3-dimethylphenyl)piperazin-1-yl]butyl}-5-(3-pyridyl)-1,2,4-triazol-3(2H,4H)-one 1.5 maleate], the results for the inhibition at 1 µM at 5-HT1A receptors (setting [1]) and at α2D-adrenoceptors were 90% and 84%, respectively. Further, in the assay with α1-adrenoceptors, the “% displacement at 10^-6 M, α1” value came out at 98%. On D2 dopamine receptors, this compound had a pKi of 7.03.

For `C=CCn1c(-c2cccnc2)nn(CCCN2CCN(c3ccccc3OC)CC2)c1=O.Cl.Cl.Cl` [Example 72, 4-Allyl-2-{3-[4-(2-methoxyphenyl)piperazin-1-yl]propyl}-5-(3-pyridyl)-1,2,4-triazol-3(2H,4H)-one trihydrochloride], the pKi at 5-HT1A receptors (rat hippocampus), on α2D-adrenoceptors and at D2 dopamine receptors was less than 6.30 in each case. For the same compound, in the assay with α1-adrenoceptors, the “% displacement at 10^-6 M, α1” value turned out to be 91%.

As for `C=CCn1c(-c2cccnc2)nn(CN2CCN(c3cccc(C)c3C)CC2)c1=S` [Example 61, 4-Allyl-2-[4-(2,3-dimethylphenyl)piperazin-1-ylmethyl]-5-(3-pyridyl)-1,2,4-triazole-3(2H,4H)-thione], the inhibition at 1 µM at 5-HT1A receptors (setting [1]) and at α2D-adrenoceptors was 52% throughout. The pKi on α1-adrenoceptors and at D2 dopamine receptors was less than 6.30 each time.

The values are drawn from patent US6114334A, “Piperazine derivatives as therapeutic agents” (Knoll Aktiengesellschaft, priority 1995, dated 2000).
